Data on four compounds can be found in patent US4277479A, “Tetrazolylalkoxycarbostyril derivatives and pharmaceutical compositions containing them” (Otsuka Pharmaceutical Co., Ltd., priority 1978, dated 1981).

By inhibition is commonly meant the percentage by which the read-out fell short of the control.

The test system of test [1] is cerebral blood flow, bastard dog. Kind of test: Increasing effect of cerebral blood flow in anesthetized dog. In kind it is in vivo. Particulars: Canis lupus familiaris, iv, through profunda femoris vein, dog; for change in vivo at 0.3 mg/kg: dosage 300 μg/kg. As for the experimental part: (Test of increasing effect of cerebral blood flow)
Thus, a bastard dog (male, 12-20 kg of body weight) was fixed in a prone (position) and was anesthetized with […] of pentobarbital sodium and forced to breathe at a frequency of respiration of 20 times/minute. Then, the skull was bared and the surface bone was removed to expose the venous sinus by using a grinder and the venous blood was taken out from the venas which was cannulizated. The amount of venous blood flow was measured by using an electromagnetic blood flow meter and next measured by using drop-counter to measure the number of drops of blood per 10 seconds.
The increasing effect of cerebral blood flow was calculated by comparing the number of blood drops in 30 seconds at the peak of increasement shown before and after the administration of compound to be tested. Each of the compounds to be tested was dissolved in dimethylformamide and diluted with physiological saline solution and administered through a cannule being inserted into the profunda femoris vein.

Test [2] has as its system rabbit platelet (collagen-induced aggregation). Kind of test: Platelet aggregation inhibitory effect, collagen-induced aggregation in rabbit platelet. In kind it is cell-based. Particulars: Oryctolagus cuniculus, read-out: Inhibition effect on collagen-induced aggregation in rabbit platelet; for inhibition at 100 µM: concentration of the test compound solution 10^-4 mole; for inhibition at 10 µM: concentration of the test compound solution 10^-5 mole; for inhibition at 1 µM: concentration of the test compound solution 10^-6 mole. From the text:
The blood sample used for the test is a 1/9 (by volume) mixture of sodium citrate and whole blood collected from rabbit. Said sample is subjected to 10-minute centrifugal separation at 1,000 r.p.m. to obtain a platelet rich plasma (PRP). The thus obtained PRP is separated, and the remaining blood sample is further subjected to 15-minute centrifugal separation at 3,000 r.p.m. to obtain a platelet poor plasma (PPP).
The number of platelets in the PRP is counted by the Brecher-Clonkite Method, and the PRP is diluted with the PPP to prepare a PRP sample with platelet concentration of 300,000/mm^3 for the adenosine diphosphate (ADP)-induced aggregation test. There is also prepared a PRP sample with platelet concentration of 450,000/mm^3 for the collagen-induced aggregation test.
0.6 Ml of said PRP sample is added into 0.01 ml of a solution of a test compound of a predetermined concentration and the mixture is placed in a 37° C. thermostat for one minute. Then 0.07 ml of an ADP or collagen solution is added to the mixture. Transmittance of this mixture is determined and the change of transmittance is recorded by using the aggregometer at stirrer speed of 1,100 r.p.m. […] ADP is adjusted to a concentration of 7.5×10^-5 M, and the collagen solution is prepared by triturating 100 mg of collagen with 5 ml of said buffer and the supernatant is used as collagen inducer. Adenosine and acetylsalicylic acid are used as controls for the ADP-induced aggregation test and the collagen-induced aggregation test, respectively. The platelet aggregation inhibitory effect is measured in terms of percent inhibition with respect to the aggregation rate of the controls. The aggregation rate is calculated from the following formula: [formula] wherein a: transmittance of PRP
b: transmittance of PRP containing a test compound and an aggregation inducer
The compounds tested are as follows.

Regarding `O=c1ccc2cc(OCCCc3nnnn3C3CCCCC3)ccc2[nH]1` [Compound 1, 6-[3-(1-Cyclohexyltetrazol-5-yl)propoxy]carbostyril], the change in vivo at 0.03 mg/kg in test [1] (dosage 30 μg/kg) is 36.9%. Also, the change in vivo at 0.3 mg/kg in test [1] was found to be 72.2%. Moreover, in test [2], the inhibition at 100 µM was 100%, the inhibition at 10 µM came to 100% and the inhibition at 1 µM amounted to 25.9%.
For the compound `O=c1ccc2cc(OCCCc3nnnn3CC3CCCCC3)ccc2[nH]1` [Compound 5, 6-[3-(1-Cyclohexylmethyltetrazol-5-yl)propoxy]carbostyril], the change in vivo at 0.3 mg/kg in test [1] was found to be 71%. Moreover, in test [2], the inhibition at 100 µM came out at 100%, the inhibition at 10 µM was found to be 100% and the inhibition at 1 µM is 24.7%.
In test [1], `O=c1ccc2cc(OCCCc3nnnn3C3CCCCCCC3)ccc2[nH]1` [Compound 6, 6-[3-(1-Cyclooctyltetrazol-5-yl)propoxy]carbostyril] yielded a change in vivo at 0.3 mg/kg of 75.3%. Also, in test [2], the inhibition at 100 µM was found to be 100%, the inhibition at 10 µM is 100% and the inhibition at 1 µM came out at 27.4%.
Turning to `O=c1ccc2cc(OCCCCc3nnnn3C3CCCCC3)ccc2[nH]1` [Compound 7, 6-[4-(1-Cyclohexyltetrazol-5-yl)butoxy]carbostyril], the change in vivo at 0.3 mg/kg in test [1] turned out to be 68.4%. In test [2], the inhibition at 100 µM worked out at 100%, the inhibition at 10 µM was determined as 100% and the inhibition at 1 µM came to 26.8%.
